In brackets after ≈: the same amount, converted by molar mass.
How the values were obtained:
[1] = test system: Pa44 (WT Pa); assay: MIC, broth microdilution (Example 3), Table 1; format: cell-based; settings: Pseudomonas aeruginosa, CAMHB
Method: (§1) To prepare for MIC testing, individual colonies were isolated by streaking frozen glycerol material containing Staphylococcus or Pseudomonas spp. onto rich, non-selective, tryptic soy agar containing 5% sheep's blood (TSAB), and incubated at 37° C. for 18-24 hrs.
(§2) On the day of testing, primary cultures were started by scraping off 5-10 colonies from the TSAB plates. The material was suspended in ˜5 mL of cation adjusted Mueller Hinton Broth (CAMHB) in 14 mL culture tubes and incubated at 37° C. with aeration (200 rpm) for ˜2 hrs until the OD600 was ≧0.1.
(§3) Inoculum cultures were prepared by standardizing the primary cultures to OD600=0.1 and then adding 20 μL of the adjusted primary culture per 1 mL CAMHB for Pseudomonas and CAMHB plus 4% NaCl for MRSA so that the final inoculum density was ˜10^5 colony forming units per milliliter. Diluted inoculum cultures were used to inoculate 50 μL per well in 96 well broth microdilution assay plates. 50 μL of CAMHB that contained compound concentrations ranging from 64-0.06 μg/mL in two-fold dilutions was also added to the broth microdilution assay plates for a final volume 100 μL per well, therefore final culture OD600 was approximately 0.001 and the final NaCl concentration for the MRSA strain was 2%.
(§4) Plates were incubated for 18-20 hours at 37° C. with aeration (200 rpm). Following incubation, growth was confirmed visually placing plates over a viewing apparatus (stand with a mirror underneath) and then OD600 was measured using a SpectraMax 340PC384 plate reader (Molecular Devices, Sunnyvale, Calif.). Growth was defined as turbidity that could be detected with the naked eye or achieving minimum OD600 of 0.1. MIC values were defined as the lowest concentration producing no visible turbidity.

[2] = test system: Sa399 (MRSA); assay: MIC, broth microdilution (Example 3), Table 1; format: cell-based; settings: Staphylococcus aureus, CAMHB, final 2% NaCl
Method: as §1, §2, §3, §4

[3] = test system: Pa2698; assay: MIC, broth microdilution (Example 5), Table 3; format: cell-based; settings: Pseudomonas aeruginosa
Method: (§5) II. […] MIC90 values were defined as the concentration required to inhibit growth of 90% of the strains tested. • C. SAR was performed using the following isolates: Sa399 (ATCC43300, MRSA), Sa1721 (NARSA NRS384, MRSA USA 300), Pa44 (ATCC27853), and 4 clinical isolates (Pa2241, Pa2086 (mucoid strain), Pa2694 and Pa2698). • D. The in vitro antibacterial activity of the compound of formula (I) was further evaluated in an expanded MRSA and Pa MIC panel (see Table 4 and FIG. 6).

[4] = test system: Pa2086 (mucoid strain); assay: MIC, broth microdilution (Example 5), Table 3; format: cell-based; settings: Pseudomonas aeruginosa
Method: as §5

[5] = test system: Pa44 (ATCC27853); assay: MIC, broth microdilution (Example 5), Table 3; format: cell-based; settings: Pseudomonas aeruginosa
Method: as §5

[6] = test system: Sa1721 (NARSA NRS384, MRSA USA 300); assay: MIC, broth microdilution (Example 5), Table 3; format: cell-based; settings: Staphylococcus aureus
Method: as §5

[7] = test system: Sa399 (ATCC43300, MRSA); assay: MIC, broth microdilution (Example 5), Table 3; format: cell-based; settings: Staphylococcus aureus
Method: as §5

[8] = test system: Pa2694; assay: MIC, broth microdilution (Example 5), Table 3; format: cell-based; settings: Pseudomonas aeruginosa
Method: as §5

[9] = test system: Pa2241; assay: MIC, broth microdilution (Example 5), Table 3; format: cell-based; settings: Pseudomonas aeruginosa
Method: as §5

[10] = test system: MRSA (n = 21); assay: MIC90, expanded MIC panel (Table 4); format: cell-based; settings: Staphylococcus aureus; 21 MRSA strains; read-out: MIC90 MRSA (n = 21)
Method: as §5

[11] = test system: MRSA #712; assay: MIC in MHB by standard CLSI microdilution (Example 4); format: cell-based; settings: Staphylococcus aureus; MRSA #712; read-out: MIC
Text: (§6) II. Methods • A. Animals: Six week-old, specific pathogen free, female CD-1 mice purchased from Charles River Laboratories (Wilmington, Mass.) were used for all studies after acclimation in Cubist animal facility. All animal procedures were approved by the Cubist Institutional Animal Care and Use Committee. • B. Bacteria and In Vitro Susceptibility Testing: MRSA #712, Pseudomonas aeruginosa #2245 and #2545, and Klebsiella pneumoniae #573 are clinical isolates; Pseudomonas aeruginosa #44 is an ATCC strain (ATCC#27853). MIC was determined in MHB by standard CLSI microdilution. Comparator Antibiotics Used in Animal Studies: Vancomycin hydrochloride USP was purchased from Hospira (Lake Forest, Ill.); ceftazidime hydrate from Sigma; Primaxin (imipenem and cilastatin) from Merck; ceftaroline was synthesized at a CRO. • D. Mouse Septicemia: Mice received lethal inocula of bacteria in 6% hog gastric mucin intraperitoneally (IP), followed by two treatment doses of antibiotics via subcutaneous (SC) administration at 1 and 6 hrs post-inoculation. The survival of animals was recorded daily for 7 days. The antibiotic dose calculated to protect 50% of the mice (PD50) was derived based on probit analysis of percentage survival. • E. Mouse Thigh and Lung Infections: Mice were rendered neutropenic by two IP injections of cyclophosphamide 4 days (150 mg/kg) and 1 day (100 mg/kg) before bacterial inoculation. Thigh or lung infection was induced by an intramuscular injection of 0.2 mL or intranasal inoculation of 0.1 mL inoculum preparation from an overnight bacterial culture into left thigh or nares. Tissues from one group of mice receiving no treatment (No Rx) were harvested at 1 hr for determination of baseline of bacterial burden. The remaining mice received two treatment doses of vehicles or antibiotics given SC at 1 and 6 hrs post-inoculation. Tissues from the treated mice were harvested at ˜24 hrs post-inoculation. Tissue bacterial burdens were quantified by serial dilution and spiral plating of homogenates.

[12] = test system: Klebsiella pneumoniae #573; assay: Mouse septicemia (systemic infection), PD50; format: in vivo; settings: Kpn #573; CD-1 mice, IP inoculum, 2 SC doses at 1 and 6 hrs, 7 day survival
Method: (§7) In vivo efficacy of (I) was evaluated against strains of MRSA, and ceftazidime-resistant Pa and Klebsiella pneumonia (Kpn) in mouse septicemia, thigh and lung infections. Septicemia: CD-1 mice received lethal bacterial inocula IP, followed by 2 doses of antibiotics SC at 1 and 6 hrs post-inoculation. Dose calculated to protect 50% of the mice (PD50) was derived based on probit analysis of percentage survival. Thigh and lung infections: Thighs or lungs of neutropenic mice were inoculated with MRSA or Pa. Two treatment doses were given SC at 1 and 6 hrs post-inoculation. Tissues were harvested at ˜24 hrs post-inoculation and bacterial burdens quantified.
(§8) II. Methods • A. Animals: Six week-old, specific pathogen free, female CD-1 mice purchased from Charles River Laboratories (Wilmington, Mass.) were used for all studies after acclimation in Cubist animal facility. […] MIC was determined in MHB by standard CLSI microdilution. […] The survival of animals was recorded daily for 7 days. The antibiotic dose calculated to protect 50% of the mice (PD50) was derived based on probit analysis of percentage survival. • E. Mouse Thigh and Lung Infections: Mice were rendered neutropenic by two IP injections of cyclophosphamide 4 days (150 mg/kg) and 1 day (100 mg/kg) before bacterial inoculation. […] Tissue bacterial burdens were quantified by serial dilution and spiral plating of homogenates.

[13] = test system: ceftazidime-resistant Pseudomonas aeruginosa #2545; format: in vivo; settings: Pa #2545; CD-1 mice, IP inoculum, 2 SC doses at 1 and 6 hrs, 7 day survival
Method: as §7, §8

[14] = test system: Pseudomonas aeruginosa (n = 100); assay: MIC90, expanded MIC panel (Table 4); format: cell-based; settings: 100 Pa strains
Method: as §5

[15] = test system: Pseudomonas aeruginosa #44 (ATCC#27853); assay: Mouse septicemia (systemic infection), PD50; format: in vivo; settings: Pa #44 (ATCC27853), CD-1 mice, IP inoculum, 2 SC doses at 1 and 6 hrs, 7 day survival
Method: as §7
II. Methods • A. Animals: Six week-old, specific pathogen free, female CD-1 mice purchased from Charles River Laboratories (Wilmington, Mass.) were used for all studies after acclimation in Cubist animal facility. All animal procedures were approved by the Cubist Institutional Animal Care and Use Committee. • B. Bacteria and In Vitro Susceptibility Testing: MRSA #712, Pseudomonas aeruginosa #2245 and #2545, and Klebsiella pneumoniae #573 are clinical isolates; Pseudomonas aeruginosa #44 is an ATCC strain (ATCC#27853). MIC was determined in MHB by standard CLSI microdilution. […] The survival of animals was recorded daily for 7 days. The antibiotic dose calculated to protect 50% of the mice (PD50) was derived based on probit analysis of percentage survival. • E. Mouse Thigh and Lung Infections: Mice were rendered neutropenic by two IP injections of cyclophosphamide 4 days (150 mg/kg) and 1 day (100 mg/kg) before bacterial inoculation. […] Tissue bacterial burdens were quantified by serial dilution and spiral plating of homogenates.
III. […] The dose that protected 50% of the mice (PD50) was calculated by probit analysis based on percentage of mice surviving for 7 days post-inoculation. • C. […]

[16] = test system: Kpn #573; assay: MIC in MHB by standard CLSI microdilution (Example 4); format: cell-based; settings: Klebsiella pneumoniae
Text: as §6

[17] = test system: Pa #2545; assay: as above; format: cell-based; settings: Pseudomonas aeruginosa
Text: as §6

[18] = test system: Pa #44 (ATCC27853); assay: as above; format: cell-based; settings: Pseudomonas aeruginosa
Text: as §6

[19] = test system: ceftazidime-resistant Pseudomonas aeruginosa #2545; assay: Lung infection in neutropenic mice; format: in vivo; settings: Pa #2545 lung infection
Method: as §7, §6

[20] = test system: ceftazidime-susceptible Pseudomonas aeruginosa #44 (ATCC#27853); assay: Lung infection in neutropenic mice; format: in vivo; settings: Pa #44 lung infection
Method: as §7, §6

[21] = test system: ceftazidime-susceptible Pseudomonas aeruginosa #2245; assay: Lung infection in neutropenic mice; format: in vivo; settings: Pa #2245 lung infection, 3-log CFU reduction vs vehicle at 24 h
Method: as §7, §6

| SMILES | MIC [1] [µg/mL] | MIC [2] [µg/mL] | MIC [3] [µg/mL] | MIC [4] [µg/mL] | MIC [5] [µg/mL] | MIC [6] [µg/mL] | MIC [7] [µg/mL] | MIC [8] [µg/mL] | MIC [9] [µg/mL] | other results |
| --- | --- | --- | --- | --- | --- | --- | --- | --- | --- | --- |
| CO/N=C(\C(=O)N[C@@H]1C(=O)N2C(C(=O)[O-])=C(C[N+]3(C)CCCC3)CS[C@H]12)c1csc(N)n1 [Cefepime] | ≤ 4 | > 16 | – | – | – | – | – | – | – | – |
| CO/N=C(\C(=O)N[C@@H]1C(=O)N2C(C(=O)[O-])=C(C[n+]3cccc4c3CCC4)CS[C@H]12)c1csc(N)n1 [Cefpirome] | ≤ 4 | 8 to 16 (≈ 15.5 to 31.1 µM) | – | – | – | – | – | – | – | – |
| CCO/N=C(\C(=O)N[C@@H]1C(=O)N2C(C(=O)[O-])=C(Sc3nc(-c4cc[n+](C)cc4)cs3)CS[C@H]12)c1nsc(N)n1 [Ceftaroline, ceftaroline] | – | – | > 64 | 16 (≈ 26.5 µM) | 8 (≈ 13.2 µM) | 2 (≈ 3.31 µM) | 0.5 (≈ 0.827 µM) | > 64 | 16 (≈ 26.5 µM) | MIC90 [10]: 1 µg/mL (≈ 1.65 µM); MIC [11]: 1 µg/mL (≈ 1.65 µM) |
| CC(C)(O/N=C(\C(=O)N[C@@H]1C(=O)N2C(C(=O)[O-])=C(C[n+]3ccccc3)CS[C@H]12)c1csc(N)n1)C(=O)O [Ceftazidime] | ≤ 4 | > 16 | 8 (≈ 14.6 µM) | 2 (≈ 3.66 µM) | 2 (≈ 3.66 µM) | > 64 | 64 (≈ 117 µM) | 8 (≈ 14.6 µM) | 2 (≈ 3.66 µM) | Septicemia PD50 (± SE) [12]: 50.3 ± 8.4 mg/kg; Septicemia PD50 (± SE) [13]: >140.5 mg/kg; MIC90 [14]: 8 µg/mL (≈ 14.6 µM); Septicemia PD50 (± SE) [15]: 33.9 ± 7.4 mg/kg; Septicemia PD50 (± SE) ([15]; listed as ceftazidime): 33.9 ± 7.4 mg/kg; MIC [16]: 256 µg/mL (≈ 468 µM); MIC [17]: 32 to 64 µg/mL (≈ 58.5 to 117 µM); MIC [18]: 1 µg/mL (≈ 1.83 µM); Lung (L) ED−2log ([19]; neutropenic mice, 2 SC doses at 1 and 6 hrs, 24 h, vs vehicle): >144.5 (L) mg/kg; impact on the bacterial burden in the lung ([19]; up to 144.5 mg/kg): minimal impact; Lung (L) ED−2log ([20]; 2 SC doses at 1 and 6 hrs, 24 h, vs vehicle): 25.6 (L) mg/kg; ED−3 log ([20]; 3-log CFU reduction vs vehicle at 24 h): 50.4 mg/kg; ED−3 log [21]: 27.2 mg/kg |
| CO/N=C(\C(=O)N[C@@H]1C(=O)N2C(C(=O)[O-])=C(C[n+]3ccc(CN)cc3)CS[C@H]12)c1csc(N)n1 [Compound 1-1] | ≤ 4 | > 16 | – | – | – | – | – | – | – | – |
